{
  "source": "ChEMBL document CHEMBL1136392",
  "about": "“Anilinopyrimidines as novel antituberculosis agents” (Bioorg Med Chem Lett, 2003)",
  "key": {"Plasmodium falciparum": {"system": "Plasmodium falciparum", "assay": "In vitro activity as 50% reduction in parasite growth against Plasmodium falciparum by [3H]hypoxanthine uptake", "assay_type": "functional, organism-based"}, "[1]": {"system": "Mycobacterium tuberculosis", "assay": "Minimum inhibitory concentration against Mycobacterium tuberculosis using microplate alamar blue assay", "assay_type": "functional"}, "[2]": {"assay": "Cytotoxic concentration of compound against human epidermal carcinoma (KB) cell line", "assay_type": "functional"}, "[3]": {"assay": "Cytotoxic concentration of compound against human small cell lung cancer (NCI-187)", "assay_type": "functional"}, "Breast carcinoma cell": {"system": "Breast carcinoma cell", "assay": "Cytotoxic concentration of compound against human breast cancer cells", "assay_type": "functional, cell-based"}, "[4]": {"system": "Mycobacterium tuberculosis", "assay": "Minimum inhibitory concentration against (MDR-TB) Mycobacterium tuberculosis using microplate alamar blue assay", "assay_type": "functional"}, "[5]": {"system": "Mycobacterium tuberculosis", "assay": "Minimum inhibitory concentration against Mycobacterium tuberculosis using microplate alamar blue assay; Inactive", "assay_type": "functional, organism-based"}},
  "note": "The source made the active and inactive calls. No cut-off for these calls is given here.",
  "data": [
    {"smiles": "C[C@@H]1CC[C@H]2[C@@H](C)C(=O)O[C@@H]3O[C@@]4(C)CC[C@@H]1[C@]32OO4", "note": "[ARTEMISININ]", "values": [
      {"measurement": "IC50", "setting": "Plasmodium falciparum", "result": 0.001, "unit": "µg/mL"}
    ]},
    {"smiles": "CCCN(CC1CC1)c1nc(C)cc(N(C)c2c(C)cc(C)cc2C)n1", "values": [
      {"measurement": "MIC", "setting": "[1]", "result": 3.12, "unit": "µg/mL"}
    ]},
    {"smiles": "CCCN(CC1CC1)c1nc(C)cc(Nc2ccccc2)n1", "values": [
      {"measurement": "MIC", "setting": "[1]", "result": 12.5, "unit": "µg/mL"}
    ]},
    {"smiles": "CCN(CC)c1nc(C)cc(N(C)c2ccccc2)n1", "values": [
      {"measurement": "MIC", "setting": "[1]", "result": 50, "unit": "µg/mL"}
    ]},
    {"smiles": "NNC(=O)c1ccncc1", "note": "[ISONIAZID]", "values": [
      {"measurement": "MIC", "setting": "[1]", "result": 0.04, "unit": "µg/mL"}
    ]},
    {"smiles": "Cc1c2ccncc2c(C)c2c1[nH]c1ccccc12", "note": "[ELLIPTECINE]", "values": [
      {"measurement": "IC50", "setting": "[2]", "result": 0.1, "unit": "µg/mL"},
      {"measurement": "IC50", "setting": "[3]", "result": 0.1, "unit": "µg/mL"},
      {"measurement": "IC50", "setting": "Breast carcinoma cell", "result": 0.1, "unit": "µg/mL"}
    ]},
    {"smiles": "CC(C)/N=c1\\cc2n(-c3ccc(Cl)cc3)c3ccccc3nc-2cc1Nc1ccc(Cl)cc1", "note": "[CLOFAZIMINE]", "values": [
      {"measurement": "MIC", "setting": "[4]", "result": 2, "unit": "µg/mL"}
    ]},
    {"smiles": "CCCN(CC1CC1)c1nc(C)cc(N(C)c2ccccc2)n1", "values": [
      {"measurement": "MIC", "setting": "[1]", "result": 12.5, "unit": "µg/mL"}
    ]},
    {"smiles": "NC(=O)c1cnccn1", "note": "[PYRAZINAMIDE]", "values": [
      {"measurement": "MIC", "setting": "[1]", "result": 20, "unit": "µg/mL"}
    ]},
    {"smiles": "CCN(CC)c1nc(C)cc(Nc2ccccc2)n1", "values": [
      {"measurement": "MIC", "setting": "[1]", "result": 25, "unit": "µg/mL"}
    ]},
    {"smiles": "Cc1cc(C)c(Nc2cc(C)nc(Cl)n2)c(C)c1", "values": [
      {"measurement": "MIC", "setting": "[5]", "result": "inactive"}
    ]},
    {"smiles": "Cc1cc(Nc2ccccc2)nc(Cl)n1", "values": [
      {"measurement": "MIC", "setting": "[1]", "result": 50, "unit": "µg/mL"}
    ]},
    {"smiles": "NC[C@H]1O[C@H](O[C@H]2[C@H](O)[C@@H](O[C@H]3O[C@H](CO)[C@@H](O)[C@H](N)[C@H]3O)[C@H](N)C[C@@H]2N)[C@H](O)[C@@H](O)[C@@H]1O.O=S(=O)(O)O", "note": "[KANAMYCIN SULFATE]", "values": [
      {"measurement": "MIC", "setting": "[1]", "result": 5, "unit": "µg/mL"}
    ]}
  ]
}
